How the values were obtained:
[1] = Solubility in EtOH at room temperature; format: physicochemical; conditions: form (II) vs form (I)
[2] = Thermodynamic stability from DSC data (melting point, enthalpy of fusion, Burger-Ramberger rules); format: physicochemical; conditions: heating rate 10° C./min, 30° C. to 140° C., all considered temperatures
Experimental: Further, differential scanning calorimetry (DSC) data reveal the difference between the two polymorphic forms of Rotigotine (FIGS. 7 and 8). […] Therefore, the two polymorphs of Rotigotine appear to be monotropically related.
Thermal behavior investigations of Rotigotine of polymorphic form (I) (batch 1608726) and of polymorphic form (II) (batch 7769396) were performed on a Mettler Toledo DSC system and on a TA instrument (Q-1000). The analyses were carried out with a heating rate of 10° C./min in pierced aluminum crucibles in a temperature range from 30° C. to 140° C.
In sum, the two polymorphic forms of Rotigotine can be differentiated by their respective melting point and their respective enthalpy of fusion. […] Therefore, the two polymorphs of Rotigotine are most probably monotropically related.

solubility in EtOH relative to polymorphic form (I) [1]: at least five times lower
Compound: CCCN(CCc1cccs1)[C@H]1CCc2c(O)cccc2C1 [polymorphic form (II), (−)-5,6,7,8-tetrahydro-6-[propyl-[2-(2-thienyl)ethyl]-amino]-1-naphthalenol]
thermodynamic stability relative to the other polymorph [2]: thermodynamically more stable than polymorphic form (I)
